Broadly, the Ki is a measure of affinity in units of concentration, obtained from inhibition or displacement.

SMILES strings stand for the structures. Structures can show the parent of a compound that is named as a salt. Where two headings read alike, the source gives them in different places.

The values that follow come from patent US6822100B2 (Bristol-Myers Squibb Company, priority 2001, dated 2004).

Assay [1] addresses T1, human serotonin transporters (Homo sapiens, UniProt P31645).
T1 construct: expressed in transfected cells; host or cells: HEK-293 (HEK-hSERT), membrane homogenates
The assay can be described thus: Serotonin Transporter Binding Assay. Conditions: HEK-hSERT cell membranes, 1 nM [3H]-citalopram, Cheng and Prusoff. Here is the method:
HEK-293 cells that stably express human serotonin transporters (HEK-hSERT cells) were grown at 37° C. in 5% CO2 as a monolayer in medium consisting of EMEM supplemented with 10% fetal bovine serum and G418 sulfate (500 μg/ml). To prepare membranes for radioligand binding experiments, cells were rinsed twice with phosphate-buffered saline (138 mM NaCl, 4.1 mM KCl, 5.1 mM Na2PO4, 1.5 mM […], 11.1 mM glucose, pH 7.4). Cells were transferred from plates to polypropylene tubes (16×100 mm), centrifuged at 1,200×g for 5 min and were frozen at −80° C. until assay. Following centrifugation, pellets were resuspended by homogenization in buffer consisting of 50 mM Tris (pH 7.7 at 25° C.), 120 mM NaCl and 5 mM KCl and then centrifuged at 32,000×g for 10 min. Following centrifugation, supernatants were discarded and pellets were resuspended in buffer consisting of 50 mM Tris (pH 7.4 at 25° C.), 150 mM NaCl and 5 mM KCl. Membrane homogenates (200 μl/plate) were incubated with 1 nM [^3H]-citalopram (specific activity=85 Ci/mmol) and increasing concentrations of test compounds for 1 hr at 25° C. in a total volume of 250 μl. The assay buffer consisted of 50 mM Tris (pH 7.4 at 25° C.), 120 mM NaCl and 5 mM KCl (pH 7.4 with conc. HCl). Plates were incubated for 1 hr at 25° C., then filtered through 0.5% PEI treated Whatman GF/B filters using a Brandel cell harvester. Filters were washed three times with 3 ml of ice-cold tris wash buffer. Non-specific binding was defined with 10 μM fluoxetine. Amount of radioligand bound in the presence and absence of competitor was analyzed by plotting (−)log drug concentration versus the amount of radioligand specifically bound. The midpoint of the displacement curve (IC50, nM), signifies the potency. Ki values were calculated using the method of Cheng and Prusoff (1973).

Assay [2] deals with T2, recombinant human dopamine D2L receptors (Homo sapiens, UniProt P14416).
T2 construct: expressed in transfected cells; host or cells: HEK-293 (HEK-D2L), membrane homogenates
The assay can be described thus: Dopamine Binding Assay. The settings on record: HEK-D2L cell membranes, 150 pM [3H]-spiperone, Cheng and Prusoff. Here is the method:
HEK-293 cells that stably express recombinant human dopamine D2L receptors (HEK-D2L cells) were grown at 37° C. in 5% CO2 as a monolayer in medium consisting of EMEM supplemented with 10% fetal bovine serum and G418 sulfate (500 μg/ml). To prepare membranes for radioligand binding experiments, cells were rinsed twice with phosphate-buffered saline (138 mM NaCl, 4.1 mM KCl, 5.1 mM Na2PO4, 1.5 mM KH2PO2 11.1 mM glucose, pH 7.4), and incubated for 5-10 min. at 4° C. in hypotonic lysis buffer consisting of 10 mM Tris (pH 7.4) and 5 mM EDTA. Cells were transferred from plates to polypropylene tubes (16×100 mm), homogenized and centrifuged at 32,000×g for 20 min. Following centrifugation, pellets were resuspended by homogenization in buffer consisting of 50 mM Tris (pH 7.7 at 25° C.) and 1 mM EDTA. Homogenates were stored at −80° C. until needed. On the day of an experiment, homogenates were thawed then centrifuged at 32,000×g for 20 min. Following centrifugation, supernatants were discarded and pellets were resuspended in assay buffer consisting of 50 mM Tris (pH 7.4 at 25° C.), 1 mM EDTA and 6 mM MgCl2. Membrane homogenates (˜5 μg) were incubated with 150 pM [^3H]-spiperone (Amersham Life Science) and increasing concentrations of test compounds for 1.5 hr at 22° C. in a total volume of 400 μl. Reactions were stopped by addition of ice-cold assay buffer and filtration over glass fiber filters (Whatman GFB, pre-soaked in 0.05% polyethylenimine) using a microtitre format Brandel cell harvester. Filters were washed with 3 ml of ice-cold assay buffer. Non-specific binding was defined with 2 μM (+)butaclamol. Ki values were calculated using the method of Cheng and Prusoff (1973). Protein concentrations were determined by the method of Bradford (1976) with BSA as a standard.

T1 sequence (P31645 whole entry): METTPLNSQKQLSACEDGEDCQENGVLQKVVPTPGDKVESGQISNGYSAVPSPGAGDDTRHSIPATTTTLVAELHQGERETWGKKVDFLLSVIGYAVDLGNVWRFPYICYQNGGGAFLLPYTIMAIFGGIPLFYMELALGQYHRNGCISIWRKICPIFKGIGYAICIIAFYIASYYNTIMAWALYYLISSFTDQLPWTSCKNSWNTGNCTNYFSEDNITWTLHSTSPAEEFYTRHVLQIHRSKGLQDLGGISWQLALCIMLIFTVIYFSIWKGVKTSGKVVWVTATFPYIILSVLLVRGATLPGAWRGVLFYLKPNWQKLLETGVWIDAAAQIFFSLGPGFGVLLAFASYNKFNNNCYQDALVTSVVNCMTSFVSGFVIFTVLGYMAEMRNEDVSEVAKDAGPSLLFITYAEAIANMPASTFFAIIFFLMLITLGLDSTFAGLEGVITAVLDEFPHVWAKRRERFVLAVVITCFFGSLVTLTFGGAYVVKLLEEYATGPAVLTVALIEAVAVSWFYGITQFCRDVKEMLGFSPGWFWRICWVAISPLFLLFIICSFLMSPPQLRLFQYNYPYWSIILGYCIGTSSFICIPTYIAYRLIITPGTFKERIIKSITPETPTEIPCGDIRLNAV
T2 sequence (P14416 whole entry): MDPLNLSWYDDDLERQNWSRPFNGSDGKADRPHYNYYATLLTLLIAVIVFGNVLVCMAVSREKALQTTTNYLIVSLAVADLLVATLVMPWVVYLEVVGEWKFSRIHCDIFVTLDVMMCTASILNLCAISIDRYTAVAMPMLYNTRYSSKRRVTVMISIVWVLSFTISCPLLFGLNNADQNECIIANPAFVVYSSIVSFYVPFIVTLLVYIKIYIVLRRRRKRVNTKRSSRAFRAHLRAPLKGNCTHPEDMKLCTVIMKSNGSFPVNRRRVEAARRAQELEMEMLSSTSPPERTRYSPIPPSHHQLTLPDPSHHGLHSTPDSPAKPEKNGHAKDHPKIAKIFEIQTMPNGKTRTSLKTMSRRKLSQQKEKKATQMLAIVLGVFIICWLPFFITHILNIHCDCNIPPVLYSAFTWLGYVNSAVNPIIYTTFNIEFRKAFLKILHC

As for `N#Cc1ccc2[nH]cc(C3CC3CNCCCc3cccnc3)c2c1` (stereo not drawn) [Example 22, trans-2-[5-Cyanoindol-3-yl]-1-[N-3-(3-pyridyl)propylaminomethyl]-cyclopropane], the figures for the Ki in assay [1] (read-out: SERT Ki) and in assay [2] were 1 to 10 nM and 100 to 1000 nM, respectively.

For the compound `CN(Cc1ccccc1)C[C@@H]1C[C@H]1c1c[nH]c2ccc(C#N)cc12` (relative stereo) [Example 3, Trans-2-[5-Cyanoindol-3-yl]-1-[N,N-methyl-benzylaminomethyl]-cyclopropane], the Ki was under 1 nM in assay [1] (read-out: SERT Ki) and 100 to 1000 nM in assay [2].

With `CNCC1CC1c1c[nH]c2ccc(F)cc12` (stereo not drawn) [Example 181, cis-1-(N-methylaminomethyl)-2-[5-fluoroindol-3-yl]-cyclopropane], the Ki in assay [1] (read-out: SERT Ki) lay within 10 to 100 nM; in assay [2], 100 to 1000 nM.

With `CCN(CC)CC1CC1c1n[nH]c2ccc(C#N)cc12` (stereo not drawn) [Example 165, 3-(2-Diethylaminomethyl-cyclopropyl)-1H-indazole-5-carbonitrile], the Ki in assay [1] (read-out: SERT Ki) was 100 to 1000 nM.

`CN(C)CC1CC1c1c[nH]c2ccc(F)cc12` (single isomer, unassigned) [Example 118, Cis-2-[5-Fluoroindol-3-yl]-1-(N,N-dimethylaminomethyl)cyclopropane]: the results for the Ki in assay [1] (SERT Ki (nM)) and in assay [2] were 10 to 100 nM and over 1000 nM, respectively.

With `N#Cc1ccc2[nH]cc([C@@H]3C[C@H]3CNCCOc3ccccc3)c2c1` (relative stereo) [Example 44], the Ki in assay [1] (read-out: SERT Ki) and in assay [2] was 1 to 10 nM each time.

On to `COc1cccc(CCNC[C@@H]2C[C@H]2c2c[nH]c3ccc(C#N)cc23)c1` (relative stereo) [Example 42], for which the Ki in assay [1] (read-out: SERT Ki) was 1 to 10 nM; in assay [2], 10 to 100 nM.

For the compound `N#Cc1ccc2[nH]cc(C3CC3CNCc3ccccn3)c2c1` (stereo not drawn) [Example 14, trans-2-[5-Cyanoindol-3-yl]-1-[N-(2-pyridylmethyl)aminomethyl]-cyclopropane], the Ki in assay [1] (read-out: SERT Ki) lay in the range of 10 to 100 nM; in assay [2], 100 to 1000 nM.

For `CCN(CC)C[C@H]1C[C@@H]1c1c[nH]c2cc(C#N)ccc12` (racemic) [Example 160, 3-(2-Diethylaminomethyl-cyclopropyl)-1H-indole-6-carbonitrile], the Ki in assay [1] (SERT Ki (nM)) is 10 to 100 nM; in assay [2] it was over 1000 nM.

For `CCOC(=O)NCCCN(C)C[C@@H]1C[C@H]1c1c[nH]c2ccc(F)cc12` (relative stereo) [Example 105, trans-2-[5-Fluoroindol-3-yl]-1-[N,N-methyl-2-amino(ethylcarbamoyl)propylaminomethyl]-cyclopropane], the Ki in assay [1] (read-out: SERT Ki) lay within 10 to 100 nM; in assay [2] it was 100 to 1000 nM.

`CN(C)CCCC1CC1c1c[nH]c2ccc(C#N)cc12` (stereo not drawn) [Example 174, Trans-2-[5-cyanoindol-3-yl]-1-(3-(N,N-dimethylamino)propyl)cyclopropane]: the Ki lay in the range of 10 to 100 nM in assay [1] (read-out: SERT Ki) and 100 to 1000 nM in assay [2].

Regarding `CNC[C@H]1C[C@@H]1c1c[nH]c2ccc(C(F)(F)F)cc12` (racemic) [Example 154, Methyl-[2-(5-trifluoromethyl-1H-indol-3-yl)-cyclopropylmethyl]-amine], in assay [1] (read-out: SERT Ki), the inhibitory constant (Ki) lay in the range of 10 to 100 nM.

With `CCNC[C@H]1C[C@@H]1c1c[nH]c2cc(C(F)(F)F)ccc12` (racemic) [Example 156, Ethyl-[2-(6-trifluoromethyl-1H-indol-3-yl)-cyclopropylmethyl]-amine], the Ki in assay [1] (read-out: SERT Ki) lay within 100 to 1000 nM.

For the compound `CN(C)CC1CC1c1ccc2[nH]cc(C#N)c2c1` (stereo not drawn) [Example 151, 5-(2-Dimethylaminomethyl-cyclopropyl)-1H-indole-3-carbonitrile], the Ki in assay [1] (read-out: SERT Ki) lay in the range of 1 to 10 nM.

With `CCN(C)CC1CC1c1n[nH]c2ccc(C#N)cc12` (stereo not drawn) [Example 164, 3-{2-[(Ethyl-methyl-amino)-methyl]-cyclopropyl}-1H-indazole-5-carbonitrile], the Ki in assay [1] (read-out: SERT Ki) lay in the range of 100 to 1000 nM.

Turning to `CN(C)CC1CC1c1ccc2[nH]cc(Br)c2c1` (stereo not drawn) [Example 150, N,N-dimethyl-2-(3-bromoindol-5-yl)cycloprop-1-yl methylamine], in assay [1] (read-out: SERT Ki), the Ki lay in the range of 10 to 100 nM.

Take `CCN(CC)CCCC1CC1c1c[nH]c2ccc(C#N)cc12` (stereo not drawn) [Example 177, Trans-2-[5-cyanoindol-3-yl]1-(3-(N,N-diethylamino)propyl)cyclopropane]: the Ki in assay [1] (read-out: SERT Ki) was 10 to 100 nM.

As to `CCN(CC)CC1CC1c1csc2ccccc12` (stereo not drawn) [Example 171, (2-Benzo[b]thiophen-3-yl-cyclopropylmethyl)-diethyl-amine], in assay [1] (read-out: SERT Ki), the Ki fell in the range of 100 to 1000 nM.

In the case of `CN(Cc1ccccc1)C[C@H]1C[C@@H]1c1c[nH]c2cc(C(F)(F)F)ccc12` (racemic) [Example 157, Benzyl-methyl-[2-(6-trifluoromethyl-1H-indol-3-yl)-cyclopropylmethyl]-amine], in assay [1] (read-out: SERT Ki), the Ki lay within 100 to 1000 nM.

For the compound `CCn1cc([C@H]2C[C@@H]2CN(C)C)c2cc(C#N)ccc21` [Example 189], the Ki in assay [1] (read-out: SERT Ki) is 1 to 10 nM.

For the compound `N#Cc1ccc2[nH]nc(C3CC3CN3CCCC3)c2c1` (stereo not drawn) [Example 166, 3-(2-Pyrrolidin-1-ylmethyl-cyclopropyl)-1H-indazole-5-carbonitrile], the Ki in assay [1] (read-out: SERT Ki) fell in the range of 100 to 1000 nM.

Take `CN(C)CC1CC1c1csc2ccccc12` (single isomer, unassigned; (-)) [Example 190A, (−)-(2-Benzo[b]thiophen-3-yl-cyclopropylmethyl)-dimethyl-amine]: in assay [1] (read-out: SERT Ki), the inhibition constant Ki is 100 to 1000 nM.

Regarding `CCNC[C@H]1C[C@@H]1c1c[nH]c2cc(C#N)ccc12` (racemic) [Example 159, 3-(2-Ethylaminomethyl-cyclopropyl)-1H-indole-6-carbonitrile], the Ki in assay [1] (read-out: SERT Ki) was 100 to 1000 nM.

Take `CN(C)CCC1CC1c1c[nH]c2ccc(C#N)cc12` (stereo not drawn) [Example 193, 3-[2-(2-Dimethylamino-ethyl)-cyclopropyl]-1H-indole-5-carbonitrile]: in assay [1] (read-out: SERT Ki), the inhibitory constant (Ki) lay in the range of 1 to 10 nM.

Take `CN(C)CC1CC1c1ccc2c(C#N)c[nH]c2c1` (stereo not drawn) [Example 192, 6-(2-Dimethylaminomethyl-cyclopropyl)-1H-indole-3-carbonitrile]: in assay [1] (read-out: SERT Ki), the Ki was in the range of 1 to 10 nM.

`CN(C)C[C@H]1C[C@@H]1c1cn(C)c2ccc(C#N)cc12` [Example 188]: the inhibition constant (Ki) in assay [1] (read-out: SERT Ki) was in the range of 1 to 10 nM.

For the compound `CCN(C)CC1CC1c1csc2ccccc12` (stereo not drawn) [Example 170, (2-Benzo[b]thiophen-3-yl-cyclopropylmethyl)-ethyl-methyl-amine], the inhibitory constant (Ki) in assay [1] (read-out: SERT Ki) was in the range of 100 to 1000 nM.

In the case of `c1ccc2c(C3CC3CN3CCCC3)csc2c1` (stereo not drawn) [Example 172, 1-(2-Benzo[b]thiophen-3-yl-cyclopropylmethyl)-pyrrolidine], in assay [1] (read-out: SERT Ki), the Ki is 100 to 1000 nM.

Take `CNCC1CC1c1csc2ccccc12` (stereo not drawn) [Example 168, (2-Benzo[b]thiophen-3-yl-cyclopropylmethyl)-methyl-amine]: the Ki in assay [1] (read-out: SERT Ki) lay within 10 to 100 nM.

For `C[N+](C)(C)C[C@H]1C[C@@H]1c1c[nH]c2ccc(C#N)cc12` [Example 187, S,S-Trans-2-[5-Cyanoindol-3-yl]-1-(trimethylammoniummethyl)cyclopropane trifluoroacetate], the Ki in assay [1] (read-out: SERT Ki) was under 1 nM.

`CCN(C)C[C@H]1C[C@@H]1c1c[nH]c2cc(C#N)ccc12` (racemic) [Example 161, 3-{2-[(Ethyl-methyl-amino)-methyl]-cyclopropyl}-1H-indole-6-carbonitrile]: the Ki in assay [1] (read-out: SERT Ki) is 100 to 1000 nM.

With `CN(C)CC1CC1c1ccc2cc[nH]c2c1` (stereo not drawn) [Example 191, [2-(1H-Indol-6-yl)-cyclopropylmethyl]-dimethyl-amine], in assay [1] (read-out: SERT Ki), the Ki fell in the range of 10 to 100 nM.
